Test results reported in US20240116923A1, “USE OF INDOLE, 6- AND 7-AZAINDOLE DERIVATIVES AS INHIBITORS OF FERROPTOSIS REGULATED CELL DEATH” (Seabelife, priority 2021, published 2024).

B1: BDNF: Brain Derived Neurotrophic Factor, reference compound at 50 ng/mL (protein, UniProt P23560 19-247, looked up)
Neurotrophic factor BDNF …: APMKEANIRGQGGLAYPGVRTHGTLESVNGPKAGSRGLTSLADTFEHVIEELLDEDQKVRPNEENNKDADLYTSRVMLSSQVPLEPPLLFLLEEYKNYLDAANMSMRVRRHSDPARRGELSVCDSISEWVTAADKKTAVDMSGGTVTVLEKVPVSKGQLKQYFYETKCNPMGYTKEGCRGIDKRHWNSQCRTTQSYVRALTMDSKKRIGWRFIRIDTSCVCTLTIKRGR

System: Rat dopaminergic neurons
Assay: Protective effect after 6-OHDA injury on rat primary dopaminergic neurons survival (TH staining)
Type: cell-based
Details: p<0.0001
Procedure: As explained in Ding et al., J Neurochem., 2004, (89), administration of 6-Hydroxydopamine (6-OHDA), a neurotoxin, has been widely used to cause the selective degeneration of dopamine (DA) neurons in in vitro and in vivo models. These models are used as Parkinson's disease models, which is characterized by the progressive loss of DA neurons of the substantia nigra.
Rat dopaminergic neurons were cultured as described by Schinelli et al., J Neurochem., 1988, 50(6). The cells were seeded at a density of 40 000 cells/well in 96 well-plates (precoated with poly-D-lysine; Greiner, Ref: 655940, Batch: E20093UL) and were cultured at 37° C. in a humidified air (95%)/CO2 (5%) atmosphere. Half of the medium was changed every 2 days with fresh medium. In these conditions, after 5 days of culture, astrocytes are present in the culture and release growth factor allowing neurons differentiation. In this condition, 2 to 5% of neurons are dopaminergic neurons.
6-OHDA (Sigma, Ref: 162957, Batch MKCK5243) was reconstituted in define culture medium at 40 μM (stock solution). The control medium was prepared in the same conditions. After 7 days of culture, primary mesencephalic neurons were pre-treated for 1 hour with test compounds or reference compound (BDNF, 50 ng/mL) and then intoxicated with 6-OHDA at a final concentration of 20 μM for 2 days incubation in order to induce a neuronal cell death of about 50%+/−5%.
After 2 days of intoxication in presence or absence of test compounds, cells were fixed by a solution of 4% paraformaldehyde (Sigma, ref 6148, Batch: SZBE2390V) for 20 min at room temperature, the control conditions were fixed as well following the same procedure. The cells were then permeabilized and nonspecific sites were blocked with a solution of phosphate buffered saline (PBS; PanBiotech; ref: P04-36500, Batch: 7701020) containing 0.1% of saponin (Sigma; ref: S7900, Batch: BCBL8667V) and 1% FCS for 15 min at room temperature. Cells were incubated with a mouse monoclonal anti-Tyrosine Hydroxylase (TH, 1/10 000, Sigma; ref: T1299, Batch: 014M4835) antibody in a solution of PBS overnight at 4° C. Antibody against TH stained dopaminergic neurons. […] Nuclei of cells were labelled by a fluorescent marker (Hoechst, Sigma; ref: B1155, Batch: 046M4048V) in the same solution. For each condition, 20 pictures per well were taken using InCell Analyzer™ 2200 (GE Healthcare) with 20× magnification. Images of each culture well were taken in same condition. Analysis of cell bodies of TH positive neurons was performed using Developer software (GE healthcare). A total of 6 data per experimental condition were provided.

Row | Molecule | cellular death of dopaminergic neurons (6-OHDA 20 μM alone, 2 days) [%] | cellular death of dopaminergic neurons after 6-OHDA injury (50 ng/mL, 1 h pre-treatment, 6-OHDA 20 μM 2 days (6-OHDA alone 48%)) [%]
1 | NCCc1cc(O)c(O)cc1O [Compound 6-OHDA, 6-hydroxydopamine, reference compound] | 48 | 
2 | B1 |  | 15
